Experimental data published in patent US20180028516A1, “METHODS AND DEVICES FOR THE TREATMENT OF OCULAR DISEASES IN HUMAN SUBJECTS” (CLEARSIDE BIOMEDICAL, INC., priority 2012, published 2018).

Assays:
[1] = Safety endpoints (mortality, body weights, ocular observations, IOP) in the rabbit uveitis study (Example 11); format: in vivo, New Zealand White rabbits
Experimental: In this study, the effects of pretreatment with suprachoroidal or intravitreal triamcinolone acetonide (TA) in a subretinal endotoxin-induced model of posterior segment uveitis in New Zealand White rabbits was evaluated.
On Day 1, female rabbits (4 eyes/group) received a single unilateral injection of vehicle or 4 mg TA (Triesence®, 40 mg/mL suspension, Alcon Labs) into the suprachoroidal space (SCS) using a 33 g 750 μm microneedle, or a 4 mg TA IVT injection using a standard 30 g needle. On Day 6, each animal received a single unilateral subretinal injection of lipopolysaccharide (LPS, 20-30 μL, 203 μg/g of 1% sodium hylauronate) to induce ocular inflammation in the treated eye. Animals were monitored for 22 days following dose administration. Endpoints included body weights, ocular observations, slit lamp biomicroscopy with McDonald-Shadduck scoring and photography, indirect ophthalmoscopy, fundus photography, intraocular pressure (IOP), and histopathology. A summary of the study design is shown below, in Table 6.

[2] = Ocular safety and histopathology after SCS TA (Example 8); format: in vivo, pigmented rabbits; details: SCS TA by microneedle, up to 120 days
Experimental: in this study, the total amount of triamcinolone acetonide (TA) delivered into live pigmented rabbit eyes when injected, into the suprachoroidal space using a hollow microneedle or into the vitreous using a standard 30 gauge needle was compared.
On Day 0, pigmented rabbits were injected with either intravitreal or bilateral suprachoroidal injections of 2 mg/100 μl TA Triesence® (TA; Alcon Labs). intravitreal injections were performed using a 30 g needle (Becton-Dickinson) and suprachoroidal injections were performed using a 33 g 750 μm microneedle. The residual amount of TA present in the syringe/needle assembly after injection was determined by RP-HPLC. Clinical observations, slit lamp biomicroscopy with McDonald-Shadduck scoring, intraocular pressure assessment (IOP), electroretinography (ERG), and systemic exposure were assessed up to 120 days post-dose. Animals were sacrificed at 30 minutes, 7 days, 30 days, 60 days, and 120 days for macroscopic observations, ocular toxicokinetics, and ocular histopathology.

[3] = Intraocular pressure and tolerability in porcine uveitis study (Example 13); format: in vivo, domestic weanling pigs
Experimental: Intraocular pressure (IOP) was measured at −6, −4, −1, 0, 1, 2, and 3 days using a TonoVet Tonometer (Care, Finland). In addition, IOP was measured 1, 3, and 6 hours after SCS or IVT injections on Day 0. The measurements were collected without use of topical anesthetic, per manufacturer recommendation. Conditioning of the pigs during acclimation permitted routine ocular examinations and IOP measurements to he done with minimal manual restraint. The tip of the tonometer probe was directed to contact the central cornea and 6 measurements were made consecutively. After the six measurements, the mean IOP was shown on the display providing the IOP that was recorded.

[4] = tested on: LPS-induced acute posterior uveitis; assay: Ocular histopathology and histologic inflammatory scores in porcine uveitis study (Example 13); format: in vivo
Experimental: (§1) Pigs were euthanized on study day 3 after clinical scoring, OCT, ERG, and wide-field ocular fundus photography was completed. After euthanasia with an overdose of intravenous barbiturate, both eyes were removed, Aqueous humor (All) was aspirated and a 1 mL sample of vitreous humor (VH) was collected from each eye immediately after euthanasia. The globe was then fixed in Davidson's solution for 24 hours, followed by alcohol. Central, saggital sections of each globe, including the optic nerve, were stained with hematoxylin and eosin and examined by light microscopy. Two pathology-trained observers, masked to the study groups, graded degree of inflammatory infiltrate of the ocular anterior and posterior segments. The grading scale for the anterior and posterior ocular segment used was as follows: 0=no evidence of cellular infiltrate; 1=a few cells infiltrated (mild)−focal; 2=a few cells infiltrated (mild)−diffuse; 3=moderate number of cells infiltrated; and 4=high amount of cellular infiltrate.
(§2) Differences were considered significant at P<0.05.

[5] = tested on: LPS-induced acute posterior uveitis; assay: Aqueous and vitreous humor inflammatory cell counts and protein concentration (Example 13); format: in vivo, domestic weanling pigs
Experimental: as §1
After aspiration from the eyes, AH and VH were immediately placed on ice, transferred to the laboratory, then frozen at −80° C. until processing. Samples where thawed at room temperature, vortexed, and total cell counts were performed with a hemocytometer. Total protein concentration was measured using the […] (Pierce BCA Protein Assay Kit, Thermo Scientific Pierce, Rockford, Ill.).
as §2

[6] = Ocular histopathology after SCS TA (Example 9); format: in vivo, New Zealand White rabbit
Experimental: In this study, the ocular tolerability and toxicokinetics of suprachoroidal administration of triamcinolone acetonide (TA) using a microneedle in a GLP study in the New Zealand White rabbit.
On Day 0, New Zealand White (NZW) rabbits were administered a single bilateral supraehoroidal injection of vehicle, 3.2 mg (80 μL) or 5.2 mg (130 μL) of TA (Triesence®, Alcoa labs) using a 33 g 750 μm microneedle. Clinical observations, slit lamp biomicroscopy with McDonald-Shadduck scoring, intraocular pressure assessment (IOP), electroretinography (ERG), and systemic exposure were assessed up to 26 weeks post-dose. Animals were sacrificed on Day 1, Week 13, and Week 26 for macroscopic observations, ocular toxicokinetics, and ocular histopathology.

[7] = Group 3: LPS intravitreal/low dose (0.2 mg) TA SCS
[8] = Group 4: LPS intravitreal/high dose (2.0 mg) TA SCS
[9] = Group 5: LPS intravitreal/low dose (0.2 mg) TA IVT
[10] = Group 6 (printed: LPS intravitreal/high dose TA SCS)

CC1(C)O[C@@H]2C[C@H]3[C@@H]4CCC5=CC(=O)C=C[C@]5(C)[C@@]4(F)[C@@H](O)C[C@]3(C)[C@]2(C(=O)CO)O1 [TA, triamcinolone acetonide]
IOP after SCS TA administration ([1]; 4 mg TA SCS): no significant increase
effects on mortality, body weights, or ocular observations ([1]; 4 mg TA SCS or IVT): no test article- or administration-related effects
safety profile (inflammation, edema, apoptosis, necrosis) [2]: no marked inflammation, edema, apoptosis, or necrosis at any time point
adverse effects, increased IOP, procedural or acute drug toxicity ([3]; TA into the SCS, porcine eyes): no adverse effects, increased IOP, or evidence of procedural or acute drug toxicity
tolerability of TA delivered to the SCS using microneedles ([3]; up to three days after injection in porcine eyes): tolerated with an acceptable safety profile
inflammation or histologic evidence of toxicity in the SCS ([4]; 2.0 mg TA SCS (Group 4)): no inflammation or histologic evidence of toxicity in the SCS
histopathology, inner retinal layers and vitreous [4, 7]: moderate infiltrate of neutrophils
histopathology, iris [4, 7]: mild neutrophilic infiltrate
histopathology, anterior segment [4, 8]: normal
histopathology, vitreous [4, 8]: very mild neutrophilic infiltration
mean histologic inflammatory scores in the ocular posterior segment compared with Groups 2, 5 and 6 ([4]; Group 4: high dose TA SCS): significantly lower
histopathology, anterior uvea [4, 9]: mild neurophilic infiltrate
histopathology, vitreous [4, 9]: moderate to severe cellular infiltrate
mean histologic inflammatory scores in the anterior segment compared with Groups 4 and 6 ([4]; Group 5: low dose TA IVT): significantly higher
histopathology, anterior uvea [4, 10]: mild neutrophilic infiltrate
histopathology, vitreous [4, 10]: moderate vitreal infiltrates
mean histologic inflammatory scores compared with vehicle treated eyes (Group 2) ([4]; Group 6: high dose IVT TA): significantly lower
tissue structural or toxicologic changes on histopathology ([4]; all groups, 0.2 or 2.0 mg TA SCS or IVT): None of the eyes examined in any group had evidence of substantial tissue structural or toxicologic changes
Mean AH cell counts compared with Groups 1, 5 or 6 ([5]; Group 3: low dose TA SCS): not significantly different
Mean VH cell count compared with Group 1 and Group 4 ([5]; Group 3: low dose TA SCS): significantly higher
Mean AH cell counts compared with Groups 1, 5 or 6 ([5]; Group 4: high dose TA SCS): not significantly different
mean VH cell counts compared with Group 1, the untreated control ([5]; Group 4: high dose TA SCS): not significantly different
mean vitreous humor protein concentrations compared with Groups 3, 5 and 6 ([5]; Group 4: high dose TA SCS): significantly lower
Mean AH cell counts compared with Group 1 ([5]; Group 5: low dose TA IVT): significantly higher
Mean VH cell count compared with Group 1 and Group 4 ([5]; Group 5: low dose TA IVT): significantly higher
Mean AH cell counts compared with Group 1 ([5]; Group 6: high dose TA IVT): significantly higher
mean aqueous humor protein concentration, differences among the groups ([5]; all groups): no significant differences
adverse effects related to the method of administration or treatments, as assessed by histopathology ([6]; 3.2 or 5.2 mg TA SCS): no adverse effects
inflammatory cells and test article in the suprachoroidal space (histopathology) ([6]; 3.2 or 5.2 mg TA SCS): observed in the suprachoroidal space of TA-treated animals on Day 1 but not Week 13
Ciliary process edema, animals with finding ([6]; Day 1, 3.2 mg TA/eye SCS, F): 4
Corneal epithelial thinning, animals with finding ([6]; Day 1, 3.2 mg TA/eye SCS, F): 2
Inflammatory cells in SCS, animals with finding ([6]; Day 1, 3.2 mg TA/eye SCS, F): 4
TA in SCS, animals with finding ([6]; Day 1, 3.2 mg TA/eye SCS, F): 5
Ciliary process edema, animals with finding ([6]; Day 1, 3.2 mg TA/eye SCS, M): 4
Conjunctival subepithelial inflammatory cells, animals with finding ([6]; Day 1, 3.2 mg TA/eye SCS, M): 3
Corneal epithelial thinning, animals with finding ([6]; Day 1, 3.2 mg TA/eye SCS, M): 3
Inflammatory cells in SCS, animals with finding ([6]; Day 1, 3.2 mg TA/eye SCS, M): 5
TA in SCS, animals with finding ([6]; Day 1, 3.2 mg TA/eye SCS, M): 5
Ciliary process edema, animals with finding ([6]; Day 1, 5.2 mg TA/eye SCS, F): 5
Conjunctival subepithelial inflammatory cells, animals with finding ([6]; Day 1, 5.2 mg TA/eye SCS, F): 3
Corneal epithelial thinning, animals with finding ([6]; Day 1, 5.2 mg TA/eye SCS, F): 1
Inflammatory cells in SCS, animals with finding ([6]; Day 1, 5.2 mg TA/eye SCS, F): 5
Small area of retinal damage (attributed to needle insertion), animals with finding ([6]; Day 1, 5.2 mg TA/eye SCS, F): 1
TA in SCS, animals with finding ([6]; Day 1, 5.2 mg TA/eye SCS, F): 5
Ciliary process edema, animals with finding ([6]; Day 1, 5.2 mg TA/eye SCS, M): 4
Conjunctival subepithelial inflammatory cells, animals with finding ([6]; Day 1, 5.2 mg TA/eye SCS, M): 2
Corneal epithelial thinning, animals with finding ([6]; Day 1, 5.2 mg TA/eye SCS, M): 3
Inflammatory cells in SCS, animals with finding ([6]; Day 1, 5.2 mg TA/eye SCS, M): 5
TA in SCS, animals with finding ([6]; Day 1, 5.2 mg TA/eye SCS, M): 4
Ciliary process edema, animals with finding ([6]; Week 13, 3.2 mg TA/eye SCS, F): 1
Dilated choroidal vessels, animals with finding ([6]; Week 13, 3.2 mg TA/eye SCS, F): 1
Small area of retinal damage (attributed to needle insertion), animals with finding ([6]; Week 13, 3.2 mg TA/eye SCS, F): 1
Ciliary process edema, animals with finding ([6]; Week 13, 3.2 mg TA/eye SCS, M): 3
Ciliary process edema, animals with finding ([6]; Week 13, 5.2 mg TA/eye SCS, F): 3
Ciliary process edema, animals with finding ([6]; Week 13, 5.2 mg TA/eye SCS, M): 1
Dilated choroidal vessels, animals with finding ([6]; Week 13, 5.2 mg TA/eye SCS, M): 1
